Values quoted from earlier work as cited in PMC6422283 (Future medicinal chemistry, 2015).

Tested on: TRPV1
Settings: capsaicin-induced Ca2+ flux into HEK293 cells

SMILES | IC50
Cc1nc2cc(NC(=O)c3ccc(-c4ccc(F)cc4)nc3C)ccc2s1 [SB782443] | 49 nM
Oc1cc2c(cc1O)CN(C(=S)NCCc1ccc(Cl)cc1)CCC2 [Compound 2, capsazepine] | 100 nM
